Consider two compounds from patent publication US10335503B2, “Compound that specifically binds to AMPA receptor” (Public University Corporation Yokohama City University, priority 2015, dated 2019).

Series [1] relates to AMPA receptors (GluA1 to 3). Briefly: In vivo PET imaging of rat with shRNA against GluA1 to 3 in left striatum, scramble RNA in right striatum. The note with it: seven rats, shRNA side vs scramble side of striatum. The protocol: The PET imaging was performed using micro PET (Focus 220; Siemens Medical Solution). PET imaging experiment using a rat: After the rat was allowed to get to sleep by isoflurane (DS Pharma Animal Health Co., Ltd., Japan), anesthesia was maintained at an isoflurane concentration of 1.5% (air 2 L/min), and then the intravenous line was secured from the tail vein by a 24G Surflo indwelling needle (TERUMO CORPORATION, Japan). The rat was fixed to the PET imaging base, and then radiation imaging for checking the position was performed before imaging. Thereafter, 50% DMSO or K-2 dissolved in 50% DMSO was administered by the parenteral route, and after 3 minutes from administration, the radio-labeled K-2 (about 4 MBq) was administered. […]
A summation image was constructed and offset was removed therefrom with a 0.5-mm Hanning filter so as to reconstruct a dynamic image. The reconstructed image was analyzed using PMOD image analysis software (PMOD technologies) by combining VOIs including a plurality of regions of the striatum, the hippocampus, the cerebellum, the brain stem, and the like with a region formed on the template MRI image. The calculation value used in quantitative determination was % SUV (% of standardized uptake value) and obtained by the following formula; % SUV=amount of radiation of each tissue surrounded by VOI (MBq)/administered amount of radiation (MBq)×weight (g) […]

Series [2] relates to AMPA receptor. Briefly: In vivo PET imaging using rat, with blocking by non-radio-labeled K-2. On the procedure: (§1) In the LC-MS/MS experiment, all of the synthesized compounds were dissolved in 100% DMSO so as to have a concentration of 2.5 mM, diluted with physiological saline water immediately before administration (PEPA (1.2 pmol/g), M-1 (12 pmol/g), K-2 (12 pmol/g), M-3 (60 pmol/g), and M-2 (240 pmol/g)), and administered by the parenteral route. In the electrophysiological experiment, PEPA and K-2 were dissolved in 100% DMSO so as to have a concentration of 150 mM, diluted with ACSF as a reflux liquid immediately before the experiment so as to have a concentration of 150 μM and then used. […]
The PET imaging was performed using micro PET (Focus 220; Siemens Medical Solution). PET imaging experiment using a rat: After the rat was allowed to get to sleep by isoflurane (DS Pharma Animal Health Co., Ltd., Japan), anesthesia was maintained at an isoflurane concentration of 1.5% (air 2 L/min), and then the intravenous line was secured from the tail vein by a 24G Surflo indwelling needle (TERUMO CORPORATION, Japan). The rat was fixed to the PET imaging base, and then radiation imaging for checking the position was performed before imaging. Thereafter, 50% DMSO or K-2 dissolved in 50% DMSO was administered by the parenteral route, and after 3 minutes from administration, the radio-labeled K-2 (about 4 MBq) was administered. During the PET imaging, the body temperature was maintained to 37±0.5° C. using a feedback type heating plate (BWT-100A; Bio Research Center, Japan). After the imaging, the intravenous line was removed, the administration of isoflurane was stopped, and then the rat was removed from the PET imaging base and returned to the home cage. The rat was raised in the room in which imaging was performed during 1 week after the imaging, and then the rat was returned to the normal rat group rearing room.
A summation image was constructed and offset was removed therefrom with a 0.5-mm Hanning filter so as to reconstruct a dynamic image. The reconstructed image was analyzed using PMOD image analysis software (PMOD technologies) by combining VOIs including a plurality of regions of the striatum, the hippocampus, the cerebellum, the brain stem, and the like with a region formed on the template MRI image. The calculation value used in quantitative determination was % SUV (% of standardized uptake value) and obtained by the following formula; % SUV=amount of radiation of each tissue surrounded by VOI (MBq)/administered amount of radiation (MBq)×weight (g)

For series [3], the system named is AMPA receptor. Briefly: Electrophysiological experiment: AMPA current by whole-cell recording in acute hippocampus section. The note with it: 150 μM in ACSF for 15 minutes, CA1 pyramidal cell, ground state converted as 1. Format: cell-based, rat. On the procedure: as §1
A 7- to 8-week-old male SD rat was used. […] The section was left to stand still in ACSF at room temperature for 60 minutes, and then the AMPA current was measured by a whole-cell recording method. 100 μM of picrotoxin and 100 μM of DL-APV were administered under the condition that the ACSF was refluxed at a rate of 3 ml/min, and then only the AMPA current was isolated and measured.
The recording electrode was placed on a pyramidal cell in CA1, and the exciting electrode was placed on the Schaffer fiber separated away from the recording cell by 100 to 200 μm. […] The AMPA current in the ground state was recorded for 5 minutes, reflux was thereafter performed using ACSF added with PEPA or K-2 for 15 minutes, and then the AMPA current was recorded in the reflux liquid not containing PEPA or K-2 for 30 minutes. […]

A short description of series [4]: LC-MS/MS experiment: accumulation of compound in hippocampal tissue. In kind it is in vivo. The following applies: rat, 15 minutes from administration, compared among five compounds (FIG. 1). On the procedure: as §1
The LC-MS/MS experiment and the biochemical experiment were performed after a rat was allowed to get to sleep by inhalation of isoflurane while anesthesia was maintained using a dedicate carburetor at a concentration of 1.5%. […] In the LC-MS/MS experiment, the hippocampus region was collected in a thickness of approximately 2 mm from the extracted whole brain using Brain matrix (ASI instruments, U.S.), the tissue weight thereof was measured, and then the hippocampus region was put into a 1.5-ml conical tube. […]
As for the preliminary reviewing of measurement conditions, an optimal dilution solvent and an optimal dilution magnification for each compound were determined using the hippocampal tissue (Table 4). […]

Structures are written as SMILES.

On to `[11CH3]N(CCSc1cc(F)c(OCC(N)=O)c(F)c1)S(=O)(=O)c1ccccc1` [Radio-labeled K-2, {4-[2-(Benzenesulfonyl-[^11C]Methyl-Amino)-Ethylsulfanil]-2,6-Difluoro-Phenoxy}-Acetamide], for which the “decrease in the PET image value at the shRNA side” value in series [1] is “about 30%”. Also, the “BPnd (estimated binding potential)” value with AMPA receptor [2] (Logan Plot method, blocking using the non-radio-labeled K-2, striatum and hippocampus) is given as “significantly lowered”. For the same compound, the “uptake of the brain stem” value with AMPA receptor [2] (blocking by non-radio-labeled K-2) is “not changed by blocking”. The “degree of loss of specific binding after blocking” value with AMPA receptor [2] (prior administration of 0.05 mg/kg of non-radio-labeled K-2, compared to 0.5 mg/kg) is “small”. For the same compound, the “specific accumulation of radio-labeled K-2 after blocking” value with AMPA receptor [2] (prior administration of 0.5 mg/kg of non-radio-labeled K-2, 3 minutes before) is “lost”. For the same compound, the brain uptake entry in the series with AMPA receptor [2] (rat, PET, about 4 MBq) is “extremely high brain uptake”.

On to `NC(=O)COc1c(F)cc(SCCNS(=O)(=O)c2ccccc2)cc1F` [PEPA, 2-[2,6-Difluoro-4-({2-[(phenylsulfonyl)amino]ethyl}thio)phenoxy]acetamide, reference compound], for which the “ratio of AMPA current to reference value” in the series on AMPA receptor [3] is listed as 2.4±0.13. For the same compound, the “accumulation of compound in hippocampal tissue” value in series [4] was “highest”.
